Reference: US20230374038A1, “MODULATORS OF CYSTIC FIBROSIS TRANSMEMBRANE CONDUCTANCE REGULATOR” (VERTEX PHARMACEUTICALS INCORPORATED, priority 2020, published 2023)

Target: CFTR (Homo sapiens, UniProt P13569)
Test: Membrane Potential Dye, Enteroid Assay B
Format: cell-based
Conditions: for EC50: read-out: Ent. B EC50
Description: Base medium (ADF+++) consisted of Advanced DMEM/Ham's F12, 2 mM Glutamax, 10 mM HEPES, 1 µg/mL penicillin/streptomycin.
Intestinal enteroid maintenance medium (IEMM) consisted of ADF+++, 1× B27 supplement, 1× N2 supplement, 1.25 mM N-acetyl cysteine, 10 mM Nicotinamide, 50 ng/mL hEGF, 10 nM Gastrin, 1 pg/mL hR-spondin-1, 100 ng/mL hNoggin, TGF-b type 1 inhibitor A-83-01, 100 μg/mL Primocin, […] P38 MAPK inhibitor SB202190.
Bath 1 Buffer consisted of 1 mM MgCl2, 160 mM NaCl, 4.5 mM KCl, 10 mM HEPES, 10 mM Glucose, 2 mM CaCl2).
Chloride Free Buffer consisted of 1 mM Magnesium Gluconate, 2 mM Calcium Gluconate, 4.5 mM Potassium Gluconate, 160 mM Sodium Gluconate, 10 mM HEPES, 10 mM Glucose.
Bath1 Dye Solution consisted of Bath 1 Buffer, 0.04% Pluronic F127, […] Methyl Oxonol, 30 μM CaCCinh-A01, 30 μM Chicago Sky Blue.
Chloride Free Dye Solution consisted of Chloride Free Buffer, 0.04% Pluronic F127, 20 μM Methyl Oxonol, 30 μM CaCCinh-A01, 30 μM Chicago Sky Blue.
Chloride Free Dye Stimulation Solution consisted of Chloride Free Dye Solution, 10 μM forskolin, 100 μM IBMX, and 300 nM Compound III.
Human intestinal epithelial enteroid cells were obtained from the Hubrecht Institute for Developmental Biology and Stem Cell Research, Utrecht, The Netherlands and expanded in T-Flasks as previously described (Dekkers J F, Wiegerinck C L, de Jonge H R, Bronsveld I, Janssens H M, de Winter-de Groot K M, Brandsma A M, de Jong N W M, Bijvelds M J C, Scholte B J, Nieuwenhuis E E S, van den Brink S, Clevers H, van der Ent C K, Middendorp S and M Beekman J M. A functional CFTR assay using primary cystic fibrosis intestinal organoids. Nat Med. 2013 July; 19(7):939-45.).
Cells were recovered in cell recovery solution, collected by centrifugation at 650 rpm for 5 min at 4° C., resuspended in TryPLE and incubated for 5 min at 37° C. Cells were then collected by centrifugation at 650 rpm for 5 min at 4° C. and resuspended in IEMM containing 10 μM ROCK inhibitor (RI). The cell suspension was passed through a 40 μm cell strainer and resuspended at 1×10^6 cells/mL in IEMM containing 10 μM RI. Cells were seeded at 5000 cells/well into multi-well plates and incubated for overnight at 37° C., 95% humidity and 5% CO2 prior to assay.
Enteroid cells were incubated with test compound in IEMM for 18-24 hours at 37° C., 95% humidity and 5% CO2. […] Briefly, cells were washed 5 times in Bath 1 Buffer. Bath 1 Dye Solution was added and the cells were incubated for 25 min at room temperature. Following dye incubation, cells were washed 3 times in Chloride Free Dye Solution. Chloride transport was initiated by addition of Chloride Free Dye Stimulation Solution and the fluorescence signal was read for 15 min. […] Chloride transport was then expressed as a percentage of the chloride transport following treatment with 1 μM (14S)-8-[3-(2-{Dispiro[2.0.2.1]heptan-7-yl}ethoxy)-1H-pyrazol-1-yl]-12,12-dimethyl-2λ^6-thia-3,9,11,18,23-pentaazatetracyclo[17.3.1.111,14.05,10]tetracosa-1(22),5,7,9,19(23),20-hexaene-2,2,4-trione, 3 μM (R)-1-(2,2-difluorobenzo[d][1,3]dioxol-5-yl)-N-(1-(2,3-dihydroxypropyl)-6-fluoro-2-(1-hydroxy-2-methylpropan-2-yl)-1H-indol-5-yl)cyclopropanecarboxamide and 300 nM acute N-[2,4-bis(1,1-dimethylethyl)-5-hydroxyphenyl]-1,4-dihydro-4-oxoquinoline-3-carboxamide triple combination control (% Activity).

Chain of CFTR (P13569 with tags, fused parts or gaps DEL508-508): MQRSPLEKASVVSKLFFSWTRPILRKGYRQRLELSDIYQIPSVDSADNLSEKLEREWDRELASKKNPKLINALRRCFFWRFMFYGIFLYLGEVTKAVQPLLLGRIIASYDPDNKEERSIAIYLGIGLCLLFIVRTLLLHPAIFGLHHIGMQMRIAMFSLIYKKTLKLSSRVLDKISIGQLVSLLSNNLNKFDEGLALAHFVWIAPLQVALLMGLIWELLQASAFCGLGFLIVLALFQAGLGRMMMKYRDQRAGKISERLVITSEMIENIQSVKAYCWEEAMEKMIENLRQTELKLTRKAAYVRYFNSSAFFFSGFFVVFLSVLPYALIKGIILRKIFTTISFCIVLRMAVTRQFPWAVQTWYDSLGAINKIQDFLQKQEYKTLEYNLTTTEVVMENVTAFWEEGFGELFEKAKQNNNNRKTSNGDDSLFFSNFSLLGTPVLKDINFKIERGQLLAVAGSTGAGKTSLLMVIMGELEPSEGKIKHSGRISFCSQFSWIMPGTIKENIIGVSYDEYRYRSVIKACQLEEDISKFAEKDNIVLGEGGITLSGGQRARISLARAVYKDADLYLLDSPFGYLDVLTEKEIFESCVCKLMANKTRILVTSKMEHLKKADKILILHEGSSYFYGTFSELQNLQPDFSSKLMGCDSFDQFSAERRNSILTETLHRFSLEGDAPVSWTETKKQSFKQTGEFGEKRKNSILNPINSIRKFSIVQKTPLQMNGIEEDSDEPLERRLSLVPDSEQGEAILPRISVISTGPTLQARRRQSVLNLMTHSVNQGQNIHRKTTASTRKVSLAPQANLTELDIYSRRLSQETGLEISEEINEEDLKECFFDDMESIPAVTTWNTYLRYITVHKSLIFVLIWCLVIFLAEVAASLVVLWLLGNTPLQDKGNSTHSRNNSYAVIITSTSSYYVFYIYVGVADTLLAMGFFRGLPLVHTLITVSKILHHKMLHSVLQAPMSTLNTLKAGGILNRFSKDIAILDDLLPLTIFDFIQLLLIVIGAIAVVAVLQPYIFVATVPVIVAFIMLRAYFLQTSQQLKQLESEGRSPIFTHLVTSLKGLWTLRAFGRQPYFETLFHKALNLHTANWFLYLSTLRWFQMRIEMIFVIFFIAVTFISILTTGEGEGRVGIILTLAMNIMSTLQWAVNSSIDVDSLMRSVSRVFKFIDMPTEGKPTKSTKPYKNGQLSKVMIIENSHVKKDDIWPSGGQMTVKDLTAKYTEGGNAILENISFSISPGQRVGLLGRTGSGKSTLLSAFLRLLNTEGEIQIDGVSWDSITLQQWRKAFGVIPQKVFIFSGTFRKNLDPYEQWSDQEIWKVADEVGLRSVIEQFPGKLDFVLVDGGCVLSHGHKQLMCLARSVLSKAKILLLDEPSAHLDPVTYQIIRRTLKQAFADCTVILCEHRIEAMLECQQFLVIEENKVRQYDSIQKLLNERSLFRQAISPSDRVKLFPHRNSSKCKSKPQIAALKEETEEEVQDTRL

Structure (SMILES) | Ent. B Max Activity | EC50
Cc1cccc(C)c1-c1nc2nc(c1CN(C)C)OC[C@@H](CC(C)C)N(C1CC3(CC3)C1)C(=O)c1cccc(c1)S(=O)(=O)N2 [Compound 171, (11R)-7-[(Dimethylamino)methyl]-6-(2,6-dimethylphenyl)-11-isobutyl-2,2-dioxo-12-spiro[2.3]hexan-5-yl-9-oxa-2λ^6-thia-3,5,12,19-tetrazatricyclo[12.3.1.14,8]nonadeca-1(18),4(19),5,7,14,16-hexaen-13-one] | ++ (++ is 30-60%) | < 1000 nM
Cc1cccc(C)c1-c1nc2nc(c1-c1ccccn1)O[C@H](C)CNC(=O)c1cccc(c1)S(=O)(=O)N2 [Compound 154] | + (+ is <30%) | 3000 to 30000 nM
Cc1cccc(C)c1-c1nc2nc(c1C)OC[C@@H](CC(C)C)N(C1CC3(CC(CO)C3)C1)C(=O)c1cccc(c1)S(=O)(=O)N2 (stereo in doubt) [Compound 67] | +++ (+++ is >60%) | < 1000 nM
CCc1c2nc(nc1-c1c(C)cccc1C)NS(=O)(=O)c1cccc(c1)C(=O)N(C1CC3(CC3)C1)[C@H](CC(C)(C)C)CO2 [Compound 188] | +++ (+++ is >60%) | < 1000 nM
Cc1cccc(C)c1-c1nc2nc(c1C)OC[C@@H](CCC(C)(C)O)N(Cc1ncccn1)C(=O)c1cccc(c1)S(=O)(=O)N2 [Compound 113] | ++ (++ is 30-60%) | 3000 to 30000 nM
Cc1cccc(C)c1-c1nc2nc(c1C)O[C@H](C)CN(C1CC3(CC(NC(=O)OC(C)(C)C)C3)C1)C(=O)c1cccc(c1)S(=O)(=O)N2 (stereo partly drawn) [Compound 201] | ++ (++ is 30-60%) | < 1000 nM
Cc1cccc(C)c1-c1nc2nc(c1C)OCCNC(=O)c1cccc(c1)S(=O)(=O)N2 [Compound 35, 6-(2,6-Dimethylphenyl)-7-methyl-9-oxa-2λ^6-thia-3,5,12,19-tetraazatricyclo[12.3.1.14,8]nonadeca-1(18),4,6,8(19),14,16-hexaene-2,2,13-trione] | ++ (++ is 30-60%) | 3000 to 30000 nM
Cc1cccc(C)c1-c1nc2nc(c1C)OC[C@@H](CC1(C(F)(F)F)CC1)N(C1CC3(CC(NC(=O)OC(C)(C)C)C3)C1)C(=O)c1cccc(c1)S(=O)(=O)N2 (stereo in doubt) [Compound 98] | +++ (+++ is >60%) | < 1000 nM
Cc1cccc(C)c1-c1nc2nc(c1C)OC[C@@H](CC(C)C)N([C@H]1C[C@@]3(C[C@H](N(C)C)C3)C1)C(=O)c1cccc(c1)S(=O)(=O)N2 (single isomer, unassigned) [Compound 53] | +++ (+++ is >60%) | < 1000 nM
Cc1cccc(C)c1-c1nc2nc(c1-c1ccncc1)O[C@H](C)CNC(=O)c1cccc(c1)S(=O)(=O)N2 [Compound 132] | + (+ is <30%) | –
COC1CC(N2C(=O)c3cccc(c3)S(=O)(=O)Nc3nc(c(C)c(-c4c(C)cccc4C)n3)OC[C@H]2CC(C)C)C1 (stereo in doubt) [Compound 71] | +++ (+++ is >60%) | < 1000 nM
Cc1cccc(C)c1-c1nc2nc(c1C)OC[C@@H](CC1(C(F)(F)F)CC1)N(C1CC3(CC(N(C)C)C3)C1)C(=O)c1cccc(c1)S(=O)(=O)N2 (stereo in doubt) [Compound 90] | +++ (+++ is >60%) | < 1000 nM
Cc1cccc(C)c1-c1nc2nc(c1C1CCOCC1)O[C@H](C)CNC(=O)c1cccc(c1)S(=O)(=O)N2 [Compound 151] | ++ (++ is 30-60%) | –
Cc1ccc(C(F)(F)F)c(C)c1-c1nc2nc(c1C(F)(F)F)OC[C@@H](CC(C)C)NC(=O)c1cccc(c1)S(=O)(=O)N2 [Compound 163, (11R)-6-[2,6-Dimethyl-3-(trifluoromethyl)phenyl]-11-isobutyl-2,2-dioxo-7-(trifluoromethyl)-9-oxa-2λ^6-thia-3,5,12,19-tetrazatricyclo[12.3.1.14,8]nonadeca-1(18),4(19),5,7,14,16-hexaen-13-one] | +++ (+++ is >60%) | < 1000 nM
Cc1cccc(C)c1-c1nc2nc(c1C)OC[C@@H](CCC(C)(C)O)NC(=O)c1cccc(c1)S(=O)(=O)N2 [Compound 107, (11R)-6-(2,6-Dimethylphenyl)-11-(3-hydroxy-3-methyl-butyl)-7-methyl-2,2-dioxo-9-oxa-2λ^6-thia-3,5,12,19-tetrazatricyclo[12.3.1.14,8]nonadeca-1(18),4(19),5,7,14,16-hexaen-13-one] | + (+ is <30%) | 3000 to 30000 nM
Cc1cccc(C)c1-c1nc2nc(c1C)OC[C@@H](CC1(C(F)(F)F)CC1)N(C1CC3(CC(NC(=O)OC(C)C)C3)C1)C(=O)c1cccc(c1)S(=O)(=O)N2 (stereo in doubt) [Compound 89] | +++ (+++ is >60%) | < 1000 nM
COC1CC(N2C(=O)c3cccc(c3)S(=O)(=O)Nc3nc(c(C)c(-c4c(C)cccc4C)n3)OC[C@H]2CC(C)(C)C)C1 (stereo partly drawn) [Compound 84] | +++ (+++ is >60%) | < 1000 nM
Cc1cccc(C)c1-c1nc2nc(c1-c1ccccc1)O[C@H](C)CNC(=O)c1cccc(c1)S(=O)(=O)N2 [Compound 119, (10R)-6-(2,6-dimethylphenyl)-10-methyl-2,2-dioxo-7-phenyl-9-oxa-2λ^6-thia-3,5,12,19-tetrazatricyclo[12.3.1.14,8]nonadeca-1(18),4(19),5,7,14,16-hexaen-13-one] | +++ (+++ is >60%) | < 1000 nM
Cc1cccc(C)c1-c1nc2nc(c1-c1cnn(CC(C)C)c1)OC[C@@H](C)NC(=O)c1cccc(c1)S(=O)(=O)N2 [Compound 124, (11R)-6-(2,6-Dimethylphenyl)-7-(1-isobutylpyrazol-4-yl)-11-methyl-2,2-dioxo-9-oxa-2λ^6-thia-3,5,12,19-tetrazatricyclo[12.3.1.14,8]nonadeca-1(18),4(19),5,7,14,16-hexaen-13-one] | ++ (++ is 30-60%) | 3000 to 30000 nM
Cc1cccc(C)c1-c1nc2nc(c1/C=C/C(C)(C)C)OC[C@@H](CC(C)C)NC(=O)c1cccc(c1)S(=O)(=O)N2 [Compound 126, (11R)-7-[(1E)-3,3-dimethylbut-1-en-1-yl]-6-(2,6-dimethylphenyl)-11-(2-methylpropyl)-9-oxa-2λ^6-thia-3,5,12,19-tetraazatricyclo[12.3.1.14,8]nonadeca-1(17),4,6,8(19),14(18),15-hexaene-2,2,13-trione] | +++ (+++ is >60%) | < 1000 nM
Cc1cccc(C)c1-c1nc2nc(c1C)OC[C@@H](CCC(C)(C)O)N(Cc1ccc(C(C)(C)O)cc1)C(=O)c1cccc(c1)S(=O)(=O)N2 [Compound 112] | ++ (++ is 30-60%) | 1000 to 3000 nM
Cc1cccc(C)c1-c1nc2nc(c1C)OC[C@@H](CC(C)(C)C)N(C1CC3(CC(NC(=O)OC(C)(C)C)C3)C1)C(=O)c1cccc(c1)S(=O)(=O)N2 (single isomer, unassigned) [Compound 60] | +++ (+++ is >60%) | < 1000 nM
Cc1cccc(C)c1-c1nc2nc(c1C)OC(c1ccc(CC3(C(F)(F)F)CC3)cn1)CN(C)C(=O)c1cccc(c1)S(=O)(=O)N2 (stereo not drawn) [Compound 204] | ++ (++ is 30-60%) | < 1000 nM
Cc1cccc(C)c1-c1nc2nc(c1-c1cnn(C(C)C)c1)OC[C@@H](C)NC(=O)c1cccc(c1)S(=O)(=O)N2 [Compound 139] | + (+ is <30%) | 3000 to 30000 nM
Cc1cccc(C)c1-c1nc2nc(c1C1=CCOCC1)O[C@H](C)CNC(=O)c1cccc(c1)S(=O)(=O)N2 [Compound 152] | ++ (++ is 30-60%) | 3000 to 30000 nM
